Reference: patent US7547521B2, “Heteromultimeric ion channel receptor and uses thereof” (McGill University, priority 2000, dated 2009)
Entries after “also recorded” stand apart in the source; their conditions may differ.

Key:
[1] = system: homomultimeric (ASIC2A or ASIC3) and heteromultimeric (ASIC-2S.2) channels; experiment: Proton-induced inward currents in oocytes expressing homomultimeric or heteromultimeric ASIC channels; format: cell-based; conditions: human and rat ASIC2A, ASIC3 or ASIC-2S.2-expressing oocytes
Procedure: (§1) According to method 1 described above, nuclei of Xenopus oocytes are injected with ASIC2A and ASIC3 cDNAs separately subcloned into pcDNA3 expression vector (1-5 ng). Control oocytes are injected with H2O. Oocytes are maintained at 18° C. in modified Barth's solution. Proton-activated currents are measured by two-electrode voltage clamp 1-3 days after injection. During voltage clamp (−60 mV/−100 mV)), oocytes are bathed in 116 mM NaCl, 2 mM KCl, 1.8 mM CaCl2, 10 mM acetic acid and 5 mM Hepes (pH 7.4 with NaOH). To determine proton-gating, bath solution is quickly switched to a solution of pH<7.4 for 10 sec, then returned to bath solution for washout. The stimulating solution is prepared by lowering the pH of the original bath solution with hydrochloric acid. The osmolality of the solutions is verified with an osmometer and corrected with mannitol or choline chloride. To document ionic selectivity, NaCl is replaced with LiCl or KCl. Current-voltage relationships are determined by stepping from a holding potential of −60 mV to potentials between −100 and +60 mV for 10 seconds before and during stimulation with low pH solution. FIGS. 1A (human) and 1B (rat) compare proton-activated currents carried by homomultimeric ASIC2A and ASIC3 receptors to the heteromultimeric ASIC-2S.2 receptors (ASIC2a+3). […] Species differences are also noteworthy. Indeed, using human subunits, both the early fast and sustained currents are strongly potentiated, while in the case of rat, the major effect appears to be on the sustained current only.
As described in example 2, voltage clamped oocytes expressing the ASIC-2S.2 channels are used to screen for molecules capable of modulating, activating or inhibiting channel activity.

[2] = target: T1, human ASIC2S.2 (ASIC2A+3) receptors (Homo sapiens, UniProt Q16515+Q9UHC3, A14P/I85V/M358I/P13Q); experiment: Two-electrode voltage clamp of proton-gated currents in Xenopus oocytes expressing human ASIC2S.2; format: cell-based; conditions: 100 μM FMRFamide; normalised to maximal control current at pH 3
T1 construct: allowing RT-PCR amplified full length nucleic acids to be directionally subcloned into pcDNA3; expressed in transfected cells; host or cells: Xenopus laevis oocytes (nuclear injection of pcDNA3 cDNAs)
T1 sequence (Q16515 1-512): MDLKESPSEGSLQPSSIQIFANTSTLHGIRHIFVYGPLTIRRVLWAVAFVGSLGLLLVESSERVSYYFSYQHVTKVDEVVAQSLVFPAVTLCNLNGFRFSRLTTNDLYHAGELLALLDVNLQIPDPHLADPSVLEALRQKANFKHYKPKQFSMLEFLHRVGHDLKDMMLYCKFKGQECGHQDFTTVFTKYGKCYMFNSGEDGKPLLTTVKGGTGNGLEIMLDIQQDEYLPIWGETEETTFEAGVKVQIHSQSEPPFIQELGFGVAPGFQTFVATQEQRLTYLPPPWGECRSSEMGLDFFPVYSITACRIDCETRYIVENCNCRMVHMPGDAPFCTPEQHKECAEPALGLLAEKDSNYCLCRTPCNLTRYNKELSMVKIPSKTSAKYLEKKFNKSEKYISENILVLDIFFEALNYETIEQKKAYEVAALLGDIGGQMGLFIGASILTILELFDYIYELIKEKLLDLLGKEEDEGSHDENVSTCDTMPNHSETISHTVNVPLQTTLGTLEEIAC
T1 sequence (Q9UHC3 1-531 P13Q/A14P/I85V/M358I): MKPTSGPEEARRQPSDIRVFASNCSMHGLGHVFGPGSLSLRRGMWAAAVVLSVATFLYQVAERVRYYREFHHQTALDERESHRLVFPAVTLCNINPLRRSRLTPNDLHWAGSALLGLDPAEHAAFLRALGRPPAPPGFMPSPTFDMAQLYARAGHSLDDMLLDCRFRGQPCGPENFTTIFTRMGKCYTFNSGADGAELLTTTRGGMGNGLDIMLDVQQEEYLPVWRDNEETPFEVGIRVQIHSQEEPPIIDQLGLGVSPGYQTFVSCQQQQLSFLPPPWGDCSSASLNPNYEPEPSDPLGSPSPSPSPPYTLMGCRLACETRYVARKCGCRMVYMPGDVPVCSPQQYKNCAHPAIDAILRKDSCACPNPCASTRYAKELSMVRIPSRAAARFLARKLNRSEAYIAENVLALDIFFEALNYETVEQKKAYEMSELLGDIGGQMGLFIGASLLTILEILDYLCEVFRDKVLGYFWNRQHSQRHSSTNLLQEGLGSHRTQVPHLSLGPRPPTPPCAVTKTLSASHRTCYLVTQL
Procedure: as §1, with “Indeed, using human subunits, both the early fast and sustained currents are strongly potentiated, while in the case of rat, the major effect appears to be on the sustained current only.” left out

Compound	Effect on proton-induced inward currents [1]	Effect on proton-induced inward currents ([1]; listed as gadolinium)	Sensitivity and maximal response to acidification (pH dose-response curve) [2]
N=C(N)NC(=O)c1nc(Cl)c(N)nc1N [amiloride]	inhibitory effects; also recorded: antagonistic effects	–	–
[Gd+3] [gadolinium ions, gadolinium]	antagonistic effects	inhibitory effects	–
FMRFamide	–	–	increased
